In PubChem BioAssay (NCI):
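GI50: concentration for 50% inhibition of growth. The concentration for full growth arrest is given as TGI.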

Tests used:
Experiment in all cases: growth of human tumour cells (NCI), 384-well format
COLO 205 colon = test system: COLO 205 colon
TK-10 renal = test system: TK-10 renal
BT-549 breast = test system: BT-549 breast
HOP-92 NSCLC = test system: HOP-92 NSCLC
DU-145 prostate = test system: DU-145 prostate
CCRF-CEM leukemia = test system: CCRF-CEM leukemia
HT29 colon = test system: HT29 colon
RPMI-8226 leukemia = test system: RPMI-8226 leukemia
OVCAR-5 ovarian = test system: OVCAR-5 ovarian
SNB-19 CNS = test system: SNB-19 CNS
HCT-15 colon = test system: HCT-15 colon
A498 renal = test system: A498 renal
LOX IMVI melanoma = test system: LOX IMVI melanoma
U251 glioblastoma = test system: U251 glioblastoma
MDA-MB-231 breast = test system: MDA-MB-231 breast
SF-539 CNS = test system: SF-539 CNS
IGROV1 ovarian = test system: IGROV1 ovarian
SK-MEL-5 melanoma = test system: SK-MEL-5 melanoma
EKVX NSCLC = test system: EKVX NSCLC
MDA-MB-435 melanoma = test system: MDA-MB-435 melanoma
NCI/ADR-RES ovarian = test system: NCI/ADR-RES ovarian
SN12C renal = test system: SN12C renal
HS 578T breast = test system: HS 578T breast
NCI-H522 lung = test system: NCI-H522 lung
HCT-116 colon = test system: HCT-116 colon
UACC-62 melanoma = test system: UACC-62 melanoma
MALME-3M melanoma = test system: MALME-3M melanoma
HCC-2998 colon = test system: HCC-2998 colon
MOLT-4 leukemia = test system: MOLT-4 leukemia
K-562 leukemia = test system: K-562 leukemia
NCI-H23 lung = test system: NCI-H23 lung
NCI-H460 NSCLC = test system: NCI-H460 NSCLC
KM12 colon = test system: KM12 colon
SF-268 CNS = test system: SF-268 CNS
HOP-62 NSCLC = test system: HOP-62 NSCLC
M14 melanoma = test system: M14 melanoma
SR leukemia = test system: SR leukemia
SK-MEL-2 melanoma = test system: SK-MEL-2 melanoma
A549 NSCLC = test system: A549 NSCLC
786-0 renal = test system: 786-0 renal
SK-OV-3 ovarian = test system: SK-OV-3 ovarian
CAKI-1 renal = test system: CAKI-1 renal
OVCAR-3 ovarian = test system: OVCAR-3 ovarian
HL-60(TB) leukemia = test system: HL-60(TB) leukemia
SK-MEL-28 melanoma = test system: SK-MEL-28 melanoma
PC-3 prostate = test system: PC-3 prostate
SW-620 colon = test system: SW-620 colon
MDA-MB-468 breast = test system: MDA-MB-468 breast
OVCAR-4 ovarian = test system: OVCAR-4 ovarian

Work on COc1cnccc1Nc1nc(-c2nn(Cc3c(F)cc(OCCO)cc3F)c3ccccc23)ncc1OC yielded a GI50 (COLO 205 colon) of 2.27 µM, a TGI (COLO 205 colon) of over 33.3 µM and a GI50 (TK-10 renal) of 2.04 µM. The TGI (TK-10 renal) was 4.14 µM, the GI50 (BT-549 breast) was 1.44 µM and the TGI (BT-549 breast) was 2.8 µM. It also gave a GI50 (HOP-92 NSCLC) of 0.902 µM, a TGI (HOP-92 NSCLC) of 2.19 µM and a GI50 (DU-145 prostate) of 1.73 µM. It also gave a TGI (DU-145 prostate) of 3.44 µM, a GI50 (CCRF-CEM leukemia) of 0.395 µM and a TGI (CCRF-CEM leukemia) of 1.74 µM. For the same compound, the GI50 (HT29 colon) was 1.85 µM, the TGI (HT29 colon) was 5.48 µM and the GI50 (RPMI-8226 leukemia) was 0.841 µM. The TGI (RPMI-8226 leukemia) was 2.09 µM, the GI50 (OVCAR-5 ovarian) was 2.86 µM and the TGI (OVCAR-5 ovarian) was 7.17 µM. For the same compound, the GI50 (SNB-19 CNS) was 1.6 µM, the TGI (SNB-19 CNS) was 3.08 µM and the GI50 (HCT-15 colon) was 1.2 µM. It also gave a TGI (HCT-15 colon) of 2.51 µM, a GI50 (A498 renal) of 1.19 µM and a TGI (A498 renal) of 2.43 µM. The GI50 (LOX IMVI melanoma) was 1.25 µM, the TGI (LOX IMVI melanoma) was 2.72 µM and the GI50 (U251 glioblastoma) was 1.44 µM. It also gave a TGI (U251 glioblastoma) of 2.78 µM, a GI50 (MDA-MB-231 breast) of 1.41 µM and a TGI (MDA-MB-231 breast) of 3.22 µM. The GI50 (SF-539 CNS) was 1.45 µM, the TGI (SF-539 CNS) was 2.76 µM and the GI50 (IGROV1 ovarian) was 1.94 µM. It also gave a TGI (IGROV1 ovarian) of 4.47 µM, a GI50 (SK-MEL-5 melanoma) of 1.51 µM and a TGI (SK-MEL-5 melanoma) of 2.85 µM. It also gave a GI50 (EKVX NSCLC) of 1.54 µM, a TGI (EKVX NSCLC) of 3.16 µM and a GI50 (MDA-MB-435 melanoma) of 1.73 µM. For the same compound, the TGI (MDA-MB-435 melanoma) was 3.36 µM, the GI50 (NCI/ADR-RES ovarian) was 1.87 µM and the TGI (NCI/ADR-RES ovarian) was 3.9 µM. For the same compound, the GI50 (SN12C renal) was 1.31 µM, the TGI (SN12C renal) was 2.65 µM and the GI50 (HS 578T breast) was 1.75 µM. The TGI (HS 578T breast) was 3.89 µM, the GI50 (NCI-H522 lung) was 0.768 µM and the TGI (NCI-H522 lung) was 2.03 µM. For the same compound, the GI50 (HCT-116 colon) was 1.62 µM, the TGI (HCT-116 colon) was 3.6 µM and the GI50 (UACC-62 melanoma) was 1.5 µM. The TGI (UACC-62 melanoma) was 2.86 µM, the GI50 (MALME-3M melanoma) was 1.77 µM and the TGI (MALME-3M melanoma) was 3.2 µM. For the same compound, the GI50 (HCC-2998 colon) was 1.76 µM, the TGI (HCC-2998 colon) was 4.47 µM and the GI50 (MOLT-4 leukemia) was 0.126 µM. For the same compound, the TGI (MOLT-4 leukemia) was 0.548 µM, the GI50 (K-562 leukemia) was 1.21 µM and the TGI (K-562 leukemia) was 2.56 µM. It also gave a GI50 (NCI-H23 lung) of 1.63 µM, a TGI (NCI-H23 lung) of 3.15 µM and a GI50 (NCI-H460 NSCLC) of 1.06 µM. For the same compound, the TGI (NCI-H460 NSCLC) was 2.28 µM, the GI50 (KM12 colon) was 1.27 µM and the TGI (KM12 colon) was 3.13 µM. It also gave a GI50 (SF-268 CNS) of 0.845 µM, a TGI (SF-268 CNS) of 2.72 µM and a GI50 (HOP-62 NSCLC) of 0.783 µM. It also gave a TGI (HOP-62 NSCLC) of 2.06 µM, a GI50 (M14 melanoma) of 1.4 µM and a TGI (M14 melanoma) of 2.86 µM. For the same compound, the GI50 (SR leukemia) was 0.261 µM, the TGI (SR leukemia) was 1.25 µM and the GI50 (SK-MEL-2 melanoma) was 1.54 µM. For the same compound, the TGI (SK-MEL-2 melanoma) was 2.88 µM, the GI50 (A549 NSCLC) was 1.54 µM and the TGI (A549 NSCLC) was 2.92 µM. The GI50 ([…]-0 renal) was 1.53 µM, the TGI (786-0 renal) was 2.89 µM and the GI50 (SK-OV-3 ovarian) was 1.75 µM. The TGI (SK-OV-3 ovarian) was 3.93 µM, the GI50 (CAKI-1 renal) was 1.9 µM and the TGI (CAKI-1 renal) was 8.3 µM. For the same compound, the GI50 (OVCAR-3 ovarian) was 1.61 µM, the TGI (OVCAR-3 ovarian) was 3.1 µM and the GI50 (HL-60(TB) leukemia) was 0.838 µM. For the same compound, the TGI (HL-60(TB) leukemia) was 2.16 µM, the GI50 (SK-MEL-28 melanoma) was 1.72 µM and the TGI (SK-MEL-28 melanoma) was 3.12 µM. For the same compound, the GI50 (PC-3 prostate) was 1.87 µM, the TGI (PC-3 prostate) was 3.36 µM and the GI50 (SW-620 colon) was 1.47 µM. For the same compound, the TGI (SW-620 colon) was 2.84 µM, the GI50 (MDA-MB-468 breast) was 0.927 µM and the TGI (MDA-MB-468 breast) was 2.13 µM. It also gave a GI50 (OVCAR-4 ovarian) of 1.64 µM and a TGI (OVCAR-4 ovarian) of 3.03 µM.
